Experimental data taken from PubChem BioAssay AID179 (DTP/NCI, 2004).
Calls of active or inactive are those of the source.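 The calls were made as follows: active = compounds giving half or more protection of infected cells from virus-caused growth loss, again on retest; inactive = the rest.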

Test system: CEM cells HIV-1 protection, formazan growth assay
Assay: NCI AIDS Antiviral Assay
Conditions: for IC50: measured here: growth of uninfected CEM cells
Outline: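 Protection of CEM cells against HIV-1 measured as cell growth via soluble formazan read-out, with five concentrations tested on both infected and uninfected cells; failure to protect may reflect toxicity.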

Row | SMILES | EC50 | IC50 | outcome
1 | CCCC1N2CCCCC2[C@@H]2c3[nH]c4ccccc4c3CCN12 (stereo partly drawn) | > 427 µM | > 427 µM | –
2 | COc1cccc(/C=N/[N-]C(N)=O)c1[O-].[Co+2].[OH3+] | > 126 µM | 61.7 µM | –
3 | CN(C)Cc1cc(C(=O)/C=C/c2ccccc2)cc(CN(C)C)c1O | > 200 µM | 25.1 µM | –
4 | Cc1ccc(S(=O)(=O)OC2COCOC2C2OCOC3COCOC32)cc1 (stereo not drawn) | > 200 µM | > 200 µM | –
5 | COc1ccc2c(CCNS(=O)(=O)c3ccccc3)c(C(C)=O)[nH]c2c1[N+](=O)[O-] | – | – | inactive
6 | O=C([CH-]C(=O)c1ccccc1)c1ccccc1.[CH3-].[CH3-].[CH3-].[Sn+4] | > 35.5 µM | > 35.5 µM | –
7 | CCOC(=O)C(=CNC(=S)Nc1ccc(OCC)cc1)C(=O)OCC | > 200 µM | 112 µM | –
8 | CCC[CH2][Sn]([CH2]CCC)([S]c1cccc2cccnc12)[S]c1cccc2cccnc12 | – | – | inactive
9 | COc1cccc(C=C(C#N)C#N)c1 | > 708 µM | 115 µM | –
10 | COc1ccc(CC(=O)c2ccc(O)cc2O)cc1 | > 200 µM | 81.3 µM | –
11 | COC(=O)C([O][Ge]([CH3])([CH3])[CH3])c1ccccc1 (stereo not drawn) | > 251 µM | > 251 µM | –
12 | CC(=O)CC(=O)Nc1c(C)[c]([Hg][O]C(C)=O)c(C)[c]([Hg][O]C(C)=O)[c]1[Hg][O]C(C)=O | > 1.48 µM | > 1.48 µM | –
13 | Cl/C=C\C[N+]12CN3CN(CN(C3)C1)C2 | > 200 µM | 93.3 µM | –
14 | COc1ccc2c(O)c(S(=O)(=O)c3ccc(Cl)cc3)c(=O)oc2c1 | > 200 µM | 129 µM | –
15 | CCOc1ccc2nc(NC(=O)C(=O)C(c3cnc4ccccc4n3)[N+](=O)[O-])sc2c1 (stereo not drawn) | > 155 µM | > 155 µM | –
16 | CCOC(=O)c1cccc([N+](=O)[O-])c1N | > 200 µM | > 200 µM | –

Row | SMILES | EC50 | IC50 | outcome
17 | N#CC1CCCCOCCOCCOCCOCCOCCCCCC1=O (stereo not drawn) | – | – | inactive
18 | O=C1c2ccccc2[Se](=O)N1c1ccccc1 (stereo not drawn) | 1.17 µM | 14.1 µM | –
19 | N=c1o[n-][n+](-c2ccccc2)c1-c1ccccc1 | – | – | inactive
20 | CCCCCCCCCCCCCCCCNc1ccn(C2CC(OP(=O)(O)OCC3CCC(n4ccc(N)nc4=O)O3)C(CO)O2)c(=O)n1 (stereo not drawn) | 1 µM | 97.7 µM | –
21 | C[C@@H]1C[C@H](O)[C@]2(O)O[C@@H]3C[C@@]4(C=O)[C@@H](CC=C5[C@@H]4CC[C@]4(C)[C@@H](C6=CC(=O)OC6)CC[C@]54O)C[C@H]3O[C@@H]2O1 | > 0.1 µM | 0.0138 µM | –
22 | COc1ccc(C2=CC(C(C)=C(C(N)=O)C(N)=O)C=C(c3ccc(Br)cc3)C2)c(OC)c1 (stereo not drawn) | > 200 µM | 75.9 µM | –
23 | CC1(C)CN=C(Nc2cccc(C(F)(F)F)c2)S1 | > 200 µM | 41.7 µM | –
24 | C/C(=C/C(=O)O)CC/C=C(/C)C(=O)O | > 479 µM | > 479 µM | –
25 | CCNc1cc2c3c(c1)CCCN3CCC2 | > 200 µM | 8.51 µM | –
26 | CCCCCC=C(c1cc(Br)c(OC)c(Br)c1)c1cc(Br)c(OC)c(Br)c1 | > 151 µM | > 151 µM | –
27 | O=[N+]([O-])/C(C(Cl)=C(Cl)Cl)=C(/Cl)SCc1ccccc1 | > 200 µM | 11 µM | –
28 | CCn1c(SCC(=O)NNC(=S)Nc2ccc(C)cc2)nc2ccccc2c1=O | > 200 µM | 105 µM | –
29 | Nc1cc([N+](=O)[O-])ccc1N1C(=O)CCCC1=O | > 200 µM | > 200 µM | –
30 | CC(C)O/N=C/c1cc(NC(=S)OC(C)C)ccc1Cl | 0.0447 µM | 22.9 µM | –
31 | N#Cc1c(-c2ccc(NCc3nc4ccccc4[nH]3)cc2)cc(-c2ccco2)[nH]c1=O | > 200 µM | 27.5 µM | –
